Patent US10618914B2 (UNIVERSITY OF PITTSBURGH—OF THE COMMONWEALTH SYSTEM OF …, priority 2015, dated 2020)
Like-named read-outs stand apart in the source and are kept apart here.

Assays:
Assay type in all cases: cell-based
STAT3 = test: HCS STAT3 assay
STAT1 = STAT1 assay (selectivity counter-screen)
Cal33 cells = test: Cal33 growth inhibition; conditions: for GI50: Table 5, * average of 2 experiments
[1] = Table 4, read-out: STAT3 IC50 (converted)
[2] = Table 5, * average of 2 experiments, read-out: STAT3 IC50 (converted)
[3] = Table 5, * average of 2 experiments
[4] = Table 2, read-out: STAT3 (IC50)
[5] = Table 2, read-out: Cal33 (IC50)
[6] = Table 1, read-out: STAT3 (mean IC50)
[7] = Homo sapiens, CAL-33, Table 1, read-out: Growth Inhibition Cal33 (mean IC50)
[8] = FIG. 3, read-out: STAT3 potency (IC50)
[9] = Homo sapiens, CAL-33, Table 2, read-out: Cal33 (IC50)

SMILES	IC50 (STAT1; Table 4) [µM]	IC50 (STAT3; [4]) [µM]	IC50 (Cal33 cells; [5]) [µM]	further results
CC1=Nn2c(nnc2-c2[nH]nc3c2CCC3)SC1 [12a]	> 50			IC50 (STAT3; [1]): > 50 µM
CC1=Nn2c(nnc2-c2cc(-c3ccccc3)n[nH]2)SC1 [12b]	> 50			IC50 (STAT3; [1]): > 50 µM
c1cc(C2=Nn3c(nnc3-c3[nH]nc4c3CCC4)SC2)ccn1 [9a]	> 50			IC50 (STAT3; [1]): > 50 µM
CCCCC1Sc2nnc(-c3[nH]nc4c3CCC4)n2N=C1c1ccc(Cl)c(Cl)c1 (stereo not drawn) [Cmpd 29]				IC50 (STAT3; [2]): 7.5 µM; IC50 (STAT1; [3]): > 50 µM; GI50 (Cal33 cells): 3.3 µM
COc1ccc(C2=Nn3c(nnc3-c3cc(-c4ccc(F)cc4)n[nH]3)SC2C)cc1 (stereo not drawn) [Cmpd 23]				IC50 (STAT3; [2]): 4.2 µM; IC50 (STAT1; [3]): > 30 µM; GI50 (Cal33 cells): 29.5 ± 6.5 µM
C1=Nn2c(nnc2-c2cc(-c3ccccc3)n[nH]2)SC1 [11b]	> 50			IC50 (STAT3; [1]): > 50 µM
CCC(C)C1Sc2nnc(-c3cc(-c4ccccc4)n[nH]3)n2N=C1c1ccc(OC)cc1 (stereo not drawn) [Cmpd 28]				IC50 (STAT1; [3]): > 50 µM; GI50 (Cal33 cells): 0.5 µM
CC(C)C1Sc2nnc(-c3[nH]nc4c3CCC4)n2N=C1c1ccc(Cl)c(Cl)c1 (stereo not drawn) [Cmpd 25]				IC50 (STAT3; [2]): 4.4 µM; IC50 (STAT1; [3]): > 50 µM; GI50 (Cal33 cells): 8.2 µM
COc1ccc(C2=Nn3c(nnc3-c3[nH]nc4c3CCC4)SC2C(C)C)cc1 (stereo not drawn) [Cmpd 26]				IC50 (STAT1; [3]): > 50 µM; GI50 (Cal33 cells): 0.4 ± 0.1 µM
Clc1ccc(C2=Nn3c(nnc3-c3cc(-c4ccccc4)n[nH]3)SC2)cc1Cl [1b]	> 50			
c1ccc(C2=Nn3c(nnc3-c3[nH]nc4c3CCC4)SC2)cc1 [7a]	> 50			IC50 (STAT3; [1]): 21.2 ± 23.5 µM
Clc1cccc(C2=Nn3c(nnc3-c3cc(-c4ccccc4)n[nH]3)SC2)c1 [6b]	45.9			IC50 (STAT3; [1]): 5.6 µM
Clc1ccc(C2=Nn3c(nnc3-c3[nH]nc4c3CCC4)SC2)s1 [10a]	> 50			
Clc1ccc(C2=Nn3c(nnc3-c3[nH]nc4c3CCC4)SC2)cc1 [2a]	> 50			
C1CCC(C2=Nn3c(nnc3-c3[nH]nc4c3CCC4)SC2)CC1 [13a]	> 50			IC50 (STAT3; [1]): > 30 µM
CC1Sc2nnc(-c3[nH]nc4c3CCC4)n2N=C1c1ccc(Br)cc1 (stereo not drawn) [compound 10476]		18.6	0.79	
CC1(C)Sc2nnc(-c3[nH]nc4c3CCC4)n2N=C1c1ccc(Cl)c(Cl)c1 [compound 10283]		18.6	50	
CC1Sc2nnc(-c3cc(-c4ccccc4)n[nH]3)n2N=C1c1ccc(C(F)(F)F)cc1 (stereo not drawn) [compound 10478]		35.9	50	
CC1Sc2nnc(-c3nn(Cc4ccccc4)c4c3CCC4)n2N=C1c1ccc(Cl)c(Cl)c1 (stereo not drawn) [compound 10491]		5.9	17.4	
Cc1ccc(C2=Nn3c(nnc3-c3[nH]nc4c3CCC4)SC2C)cc1 (stereo not drawn) [compound 10472]		41.1	0.18	
COc1ccc(C2=Nn3c(nnc3-c3[nH]nc4c3CCC4)SC2C)cc1OC (stereo not drawn) [compound 10494]		25.1	5.7	
COc1ccc(C2=Nn3c(nnc3-c3cc(-c4ccccc4)n[nH]3)SC2C)cc1OC (stereo not drawn) [compound 10495]		7.6	13.1	
Clc1cccc(C2=Nn3c(nnc3-c3[nH]nc4c3CCC4)SC2)c1 [6a]	> 50			
COc1ccc(C2=Nn3c(nnc3-c3[nH]nc4c3CCC4)SC2Cc2ccccc2)cc1 (stereo not drawn) [compound 10320]		19.5	0.83	
Clc1ccc(C2=Nn3c(nnc3-c3[nH]nc4c3CCCC4)SC2)cc1 [UPCDC10084]				IC50 (STAT3; [6]): 21.3 µM; IC50 (Cal33 cells; [7]): 0.6 µM
COc1ccc(C2=Nn3c(nnc3-c3cc(-c4ccccc4)n[nH]3)SC2C)cc1 (stereo not drawn) [compound 10511]		7.6	28	

SMILES	IC50 (STAT1; Table 4) [µM]	IC50 (STAT3; [4]) [µM]	IC50 (Cal33 cells; [5]) [µM]	further results
CC1Sc2nnc(-c3cc(-c4cccc(Cl)c4)n[nH]3)n2N=C1c1ccc(Cl)c(Cl)c1 (stereo not drawn) [compound 10538]		32.2	13.7	
CC1Sc2nnc(-c3[nH]nc4c3CCC4)n2N=C1c1ccccc1 (racemic) [compound 10173]		18.2	41.8	
CC(C)CC1Sc2nnc(-c3[nH]nc4c3CCC4)n2N=C1c1ccc(Cl)c(Cl)c1 (racemic) [compound 10304]		27.1	3.5	
COc1ccc(C2=Nn3c(nnc3C(C)C)SC2C)cc1 (stereo not drawn) [UPCDC10332]				IC50 (STAT3; [6]): 14.3 µM; IC50 (Cal33 cells; [7]): 0.16 µM
Clc1ccc(C2=Nn3c(nnc3-c3[nH]nc4c3CCC4)SC2Cc2ccccc2)cc1Cl (stereo not drawn) [compound 10308]		7.5	3.3	IC50 (STAT3; [8]): < 10 µM
CC1Sc2nnc(-c3nn(Cc4ccc(OC(F)(F)F)cc4)c4c3CCC4)n2N=C1c1ccc(Cl)c(Cl)c1 (stereo not drawn) [compound 10477]		31	34.3	
Clc1ccc(C2=Nn3c(nnc3-c3cc(-c4ccccc4)n[nH]3)SC2)s1 [10b]	> 50			IC50 (STAT3; [1]): > 50 µM
CCN(CC)CCC1Sc2nnc(-c3cc(-c4ccccc4)n[nH]3)n2N=C1c1ccc(OC)cc1 (stereo not drawn) [compound 10380]		8.8	3.7	IC50 (STAT3; [8]): < 10 µM
C1=Nn2c(nnc2-c2[nH]nc3c2CCC3)SC1 [11a]	> 50			IC50 (STAT3; [1]): > 50 µM
CC1Sc2nnc(-c3cc(-c4ccccc4)n[nH]3)n2N=C1c1ccccc1 (stereo not drawn) [compound 10261]		12.3	40	
CC1(C)Sc2nnc(-c3cc(-c4ccccc4)n[nH]3)n2N=C1c1ccccc1 [compound 10264]		45.6	50	
COc1ccc(C2=Nn3c(nnc3-c3[nH]nc4c3CCCC4)SC2)cc1 [UPCDC10073]				IC50 (STAT3; [6]): 17 µM; IC50 (Cal33 cells; [7]): 0.2 µM
CC1Sc2nnc(-c3cc(-c4ccccc4)n[nH]3)n2N=C1c1ccc(OC(F)(F)F)cc1 (stereo not drawn) [compound 10474]		24.2	50	
COc1ccc(C2=Nn3c(nnc3-c3cc(-c4cccc(Cl)c4)n[nH]3)SC2C)cc1 (stereo not drawn) [compound 10539]		8.7	12.7	
CC1Sc2nnc(-c3[nH]nc4c3CCC4)n2N=C1c1ccc(Cl)cc1 (stereo not drawn) [UPCDC10281]		7.21		IC50 (STAT3; [6]): 7.21 µM; IC50 (Cal33 cells; [7]): 0.44 µM; IC50 (Cal33 cells; [9]): 0.44 µM
COc1ccc(C2=Nn3c(nnc3-c3cc(-c4ccccc4)n[nH]3)SC2CC(=O)N2CCCC2)cc1 (stereo not drawn) [compound 10426]		9.1	20.5	IC50 (STAT3; [8]): < 10 µM
COc1ccc(C2=Nn3c(nnc3-c3[nH]nc4c3CCC4)SC2C)cc1 (stereo not drawn) [UPCDC10262]		8.8		IC50 (STAT3; [6]): 8.78 µM; IC50 (Cal33 cells; [7]): 0.18 µM; IC50 (Cal33 cells; [9]): 0.18 µM
c1ccc(C2=Nn3c(nnc3-c3cc(-c4ccccc4)n[nH]3)SC2)cc1 [7b]	> 50			IC50 (STAT3; [1]): 27 µM
O=C(CC1Sc2nnc(-c3cc(-c4ccccc4)n[nH]3)n2N=C1c1ccccc1)N1CCCC1 (stereo not drawn) [compound 10410]		37.3	43.5	
CC1Sc2nnc(-c3cc(-c4ccc(F)cc4)n[nH]3)n2N=C1c1ccccc1 (racemic) [compound 10135]		3.8	33.4	
c1ccc(-c2cc(-c3nnc4n3N=C(C3CCCCC3)CS4)[nH]n2)cc1 [13b]	> 50			IC50 (STAT3; [1]): > 50 µM
COc1cccc(C2=Nn3c(nnc3-c3cc(-c4ccccc4)n[nH]3)SC2C)c1 (stereo not drawn) [compound 10475]		7.1	12.4	
CC1Sc2nnc(-c3cc(-c4ccc(Cl)cc4)n[nH]3)n2N=C1c1ccc(Cl)c(Cl)c1 (stereo not drawn) [compound 10537]		16	7.6	
COc1ccc(C2=Nn3c(nnc3-c3nn(C)c4c3CCC4)SC2C)cc1 (stereo not drawn) [compound 10420]		46.1	0.38	
c1ccc(-c2cc(-c3nnc4n3N=C(c3ccncc3)CS4)[nH]n2)cc1 [9b]	> 50			IC50 (STAT3; [1]): > 50 µM
